Reference: PubChem BioAssay AID248 (DTP/NCI, 2004)
“And” between values parts separate entries of the source, which are not always exact repeats. Equal entries are not always repeated. Inconclusive results and toxic doses are left out. Cut-off read from the data, not from the text of the source: active = T/C of 150% or more; inactive = T/C below 125%.

Test system: L1210 leukemia ip in BDF1 mice, survival T/C
Assay: NCI In Vivo Anticancer Drug Screen. Data for tumor model L1210 Leukemia (intraperitoneal) in B6D2F1 (BDF1) mice
Details: higher = longer survival
In short: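 Each compound was tested against a transplantable tumor grown in mice. The endpoint was survival, with treated animals benchmarked against vehicle controls as a simple ratio.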

Measured: T/C

CC1OC(OC2C(O)CC(OC3C(O)CC(OC4CCC5(C)C(CCC6C5CCC5(C)C(C7=CC(=O)OC7)CCC65O)C4)OC3C)OC2C)CC(O)C1O (configuration not stated)
inactive: endpoint: mean survival time, dose: 1.0 mg/kg/injection, schedule: Q01DX015 (sc), vehicle: steriod suspending solution 93 % of control | endpoint: mean survival time, dose: 2.0 mg/kg/injection, schedule: Q01DX015 (sc), vehicle: steriod suspending solution 98 % of control | endpoint: mean survival time, dose: 4.0 mg/kg/injection, schedule: Q01DX015 (sc), vehicle: steriod suspending solution 101 % of control | endpoint: mean survival time, dose: 8.0 mg/kg/injection, schedule: Q01DX015 (sc), vehicle: steriod suspending solution 102 % of control | endpoint: mean survival time, dose: 10.0 mg/kg/injection, schedule: Q01DX001 (ip), vehicle: saline 106 % of control | endpoint: mean survival time, dose: 16.0 mg/kg/injection, schedule: Q01DX015 (sc), vehicle: steriod suspending solution 105 % of control | endpoint: mean survival time, dose: 20.0 mg/kg/injection, schedule: Q01DX001 (ip), vehicle: saline 105 % of control | endpoint: mean survival time, dose: 32.0 mg/kg/injection, schedule: Q01DX015 (sc), vehicle: steriod suspending solution 101 % of control | endpoint: mean survival time, dose: 40.0 mg/kg/injection, schedule: Q01DX001 (ip), vehicle: saline 103 % of control | endpoint: median survival time, dose: 0.5 mg/kg/injection, schedule: Q01DX005 (iv), vehicle: water 99 % of control | endpoint: median survival time, dose: 0.5 mg/kg/injection, schedule: Q01DX010 (ip), vehicle: methylcellulose (MC) 91 % of control | endpoint: median survival time, dose: 0.5 mg/kg/injection, schedule: Q01DX010 (ip), vehicle: water 99 % of control and 100 % of control | endpoint: median survival time, dose: 1.0 mg/kg/injection, schedule: Q01DX005 (iv), vehicle: water 99 % of control | endpoint: median survival time, dose: 1.0 mg/kg/injection, schedule: Q01DX010 (ip), vehicle: methylcellulose (MC) 102 % of control | endpoint: median survival time, dose: 1.0 mg/kg/injection, schedule: Q01DX010 (ip), vehicle: water 99 % of control and 100 % of control | endpoint: median survival time, dose: 1.0 mg/kg/injection, schedule: Q04DX003 (ip), vehicle: water 99 % of control and 100 % of control | endpoint: median survival time, dose: 1.0 mg/kg/injection, schedule: Q04DX003 (iv), vehicle: water 96 % of control | endpoint: median survival time, dose: 2.0 mg/kg/injection, schedule: Q01DX005 (ip), vehicle: water 95 % of control | endpoint: median survival time, dose: 2.0 mg/kg/injection, schedule: Q01DX005 (iv), vehicle: water 100 % of control | endpoint: median survival time, dose: 2.0 mg/kg/injection, schedule: Q01DX010 (ip), vehicle: methylcellulose (MC) 104 % of control | endpoint: median survival time, dose: 2.0 mg/kg/injection, schedule: Q01DX010 (ip), vehicle: water 105 % of control and 111 % of control | endpoint: median survival time, dose: 2.0 mg/kg/injection, schedule: Q04DX003 (ip), vehicle: water 95 % of control | endpoint: median survival time, dose: 2.0 mg/kg/injection, schedule: Q04DX003 (iv), vehicle: water 92 % of control | endpoint: median survival time, dose: 4.0 mg/kg/injection, schedule: Q01DX005 (ip), vehicle: water 109 % of control | endpoint: median survival time, dose: 4.0 mg/kg/injection, schedule: Q01DX005 (iv), vehicle: water 106 % of control | endpoint: median survival time, dose: 4.0 mg/kg/injection, schedule: Q01DX010 (ip), vehicle: methylcellulose (MC) 103 % of control | endpoint: median survival time, dose: 4.0 mg/kg/injection, schedule: Q01DX010 (ip), vehicle: water 102 % of control and 105 % of control | endpoint: median survival time, dose: 4.0 mg/kg/injection, schedule: Q04DX003 (ip), vehicle: water 100 % of control | endpoint: median survival time, dose: 4.0 mg/kg/injection, schedule: Q04DX003 (iv), vehicle: water 93 % of control | endpoint: median survival time, dose: 8.0 mg/kg/injection, schedule: Q01DX005 (ip), vehicle: water 113 % of control | endpoint: median survival time, dose: 8.0 mg/kg/injection, schedule: Q01DX005 (iv), vehicle: water 86 % of control | endpoint: median survival time, dose: 8.0 mg/kg/injection, schedule: Q01DX010 (ip), vehicle: water 102 % of control and 105 % of control | endpoint: median survival time, dose: 8.0 mg/kg/injection, schedule: Q04DX003 (ip), vehicle: water 86 % of control | endpoint: median survival time, dose: 8.0 mg/kg/injection, schedule: Q04DX003 (iv), vehicle: water 93 % of control | endpoint: median survival time, dose: 16.0 mg/kg/injection, schedule: Q01DX010 (ip), vehicle: water 93 % of control and 94 % of control | endpoint: median survival time, dose: 16.0 mg/kg/injection, schedule: Q04DX003 (ip), vehicle: water 93 % of control | endpoint: median survival time, dose: 16.0 mg/kg/injection, schedule: Q04DX003 (iv), vehicle: water 68 % of control
